Assay results from patent US20180282271A1, “ANTIBIOTIC AMINO ACID MIMETICS” (priority 2017, published 2018).
In brackets after ≈: the same amount, converted by molar mass.

Tests used:
[1] = test system: Enterococcus faecalis MMX 101/ATCC 29212; conditions: CLSI QC ranges shown in parenthesis; cited from earlier work
[2] = test system: Pseudomonas aeruginosa MMX 103/ATCC 27853; conditions: CLSI QC ranges shown in parenthesis; cited from earlier work
[3] = test system: Staphylococcus aureus MMX 100/ATCC 29213; conditions: CLSI QC ranges shown in parenthesis; cited from earlier work
[4] = test system: Escherichia coli MMX 102/ATCC 25922; conditions: CLSI QC ranges shown in parenthesis; cited from earlier work
[5] = test system: Haemophilus influenzae MMX 1224/ATCC 49247; experiment: Broth microdilution MIC, standard CLSI media, ATCC QC organism; assay type: cell-based
Description: (§1) The test organisms were originally received from clinical sources or from the American Type Culture Collection (ATCC, Manassas, Va.). When received, the organisms were subcultured onto an appropriate agar medium. Following incubation, colonies were harvested from the plate and a cell suspension was prepared in broth containing cryoprotectant and frozen at −80° C. Prior to the assay, a frozen vial of the culture was partially thawed and the contents were streaked for isolation onto an appropriate growth medium. The agar plates were incubated overnight at 35° C. Test organisms included staphylococci and enterococci (Table 1), streptococci (Table 2), Enterobacteriaceae (Table 3), lactose non-fermenting Gram-negative bacilli (Table 4), Haemophilus influenzae (Table 5), Neisseria gonorrhoeae (Table 5), and Clostridium difficile (Table 6).
(§2) The standard CLSI broth medium was employed for the purposes of quality control of the comparator drugs for the MIC assay and was only used for testing of relevant ATCC quality control isolates as established by CLSI (1-5).
(§3) MIC values were determined using a broth microdilution method as recommended by CLSI (1-5).
(§4) Column 1 was filled with 300 μL of the investigational and control agents at the appropriate stock concentration (40× of the highest test concentration). The Biomek 2000 was used to make eleven 2-fold serial dilutions to create a “mother plate.” The wells of column 12 contained no drug and served as growth control wells.
(§5) The daughter plates were prepared on the Biomek FX instrument which transferred 5 μL of drug solution from each well of the mother plate to the corresponding well of each daughter plate in a single step.
(§6) Standardized inoculum of each organism was prepared per CLSI methods (1-5). The inoculum for each organism was dispensed into sterile reservoirs divided by length (Beckman Coulter), and the Biomek 2000 was used to inoculate the plates. Daughter plates were placed on the Biomek 2000 work surface reversed so that inoculation took place from low to high drug concentration. The Biomek 2000 delivered 10 PL of standardized inoculum into each well resulting in a target inoculum size of approximately 5×10^5 CFU/mL. The wells of the daughter plates ultimately contained 185 μL of media, 5 μL of drug solution at 40× the test concentration, and 10 μL of bacterial inoculum prepared in media.
(§7) Plates were stacked 3-4 high, covered with a lid on the top plate, placed into plastic bags, and incubated at 35° C. under the appropriate conditions, with C. difficile incubated anaerobically. Plates were viewed post-incubation at 18-24 hr and again at 48 hr from the bottom using a plate viewer. […] MICs were read where visible growth of the organism was inhibited.

[6] = test system: Streptococcus pneumoniae MMX 1195/ATCC 49619; experiment: as above; assay type: cell-based
Description: as §1, §2, §3, §4, §5, §6, §7

[7] = test system: Neisseria gonorrhoeae MMX 683/ATCC 49226; experiment: as above; assay type: cell-based
Description: as §1, §2, §3, §4, §5, §6, §7

[8] = test system: Pseudomonas aeruginosa MMX 103/ATCC 27853; experiment: as above; assay type: cell-based
Description: as §1, §2, §3, §4, §5, §6, §7

[9] = test system: Escherichia coli MMX 102/ATCC 25922; experiment: as above; assay type: cell-based
Description: as §1, §2, §3, §4, §5, §6, §7

[10] = test system: Staphylococcus aureus MMX 100/ATCC 29213; experiment: as above; assay type: cell-based
Description: as §1, §2, §3, §4, §5, §6, §7

[11] = test system: Enterococcus faecalis MMX 101/ATCC 29212; experiment: as above; assay type: cell-based
Description: as §1, §2, §3, §4, §5, §6, §7

[12] = test system: Clostridium difficile MMX 4381/ATCC 700057; experiment: as above; assay type: cell-based; conditions: Clostridioides difficile, ATCC700057, 48 hr results
Description: as §1, §2, §3, §4, §5, §6, §7

[13] = test system: Streptococcus pneumoniae MMX 1195/ATCC 49619; conditions: CLSI QC ranges shown in parenthesis; cited from earlier work
[14] = test system: Haemophilus influenzae MMX 1224/ATCC 49247; conditions: CLSI QC ranges shown in parenthesis; cited from earlier work

Row | Compound | CLSI QC range of MIC [2] | CLSI QC range of MIC [3] | CLSI QC range of MIC [4] | MIC ([5]; ATCC49247, 24 hr results) [µg/mL] | MIC ([5]; ATCC49247, 48 hr results) [µg/mL] | MIC ([6]; ATCC49619, 24 hr results) [µg/mL] | MIC ([6]; ATCC49619, 48 hr results) [µg/mL] | MIC ([7]; ATCC49226, 24 hr results) [µg/mL] | MIC ([7]; ATCC49226, 48 hr results) [µg/mL] | MIC ([8]; ATCC27853, 24 hr results) [µg/mL] | MIC ([8]; ATCC27853, 48 hr results) [µg/mL] | MIC ([9]; ATCC25922, 24 hr results) [µg/mL] | MIC ([9]; ATCC25922, 48 hr results) [µg/mL] | MIC ([10]; ATCC29213, 24 hr results) [µg/mL] | MIC ([10]; ATCC29213, 48 hr results) [µg/mL] | MIC ([11]; ATCC29212, 24 hr results) [µg/mL] | MIC ([11]; ATCC29212, 48 hr results) [µg/mL] | other results
1 | C[C@@H](O)[C@H]1C(=O)N2C(C(=O)O)=C(S[C@@H]3CN[C@H](C(=O)N(C)C)C3)[C@H](C)[C@H]12 [MEM, meropenem] | (0.25-1) μg/mL | (0.03-0.12) μg/mL | (0.008-0.06) μg/mL | 0.06 (≈ 0.156 µM) | 0.06 (≈ 0.156 µM) | 0.06 (≈ 0.156 µM) | 0.06 (≈ 0.156 µM) | > 4 | > 4 | 0.5 (≈ 1.3 µM) | 1 (≈ 2.61 µM) | 0.03 (≈ 0.0782 µM) | 0.03 (≈ 0.0782 µM) | 0.06 (≈ 0.156 µM) | 0.12 (≈ 0.313 µM) | 4 (≈ 10.4 µM) | > 4 | CLSI QC range of MIC [1]: (2-8) μg/mL; MIC [12]: 1 µg/mL (≈ 2.61 µM); CLSI QC range of MIC [13]: (0.03-0.25) μg/mL
2 | CO/N=C(\C(=O)N[C@@H]1C(=O)N2C(C(=O)[O-])=C(C[N+]3(C)CCCC3)CS[C@H]12)c1csc(N)n1 [FEP, cefepime] | (1-4) μg/mL | (4-16) μg/mL | (0.06-0.5) μg/mL | 0.25 (≈ 0.52 µM) | 0.25 (≈ 0.52 µM) | 0.5 (≈ 1.04 µM) | 0.5 (≈ 1.04 µM) | 16 (≈ 33.3 µM) | 32 (≈ 66.6 µM) | 1 (≈ 2.08 µM) | 2 (≈ 4.16 µM) | 0.25 (≈ 0.52 µM) | 0.25 (≈ 0.52 µM) | 16 (≈ 33.3 µM) | 16 (≈ 33.3 µM) | > 64 | > 64 | CLSI QC range of MIC [14]: (0.12-1) μg/mL
